Assay results taken from article PMC4134498 (British Journal of Cancer, 2014).
“Also recorded” adds a separate entry of the source. Marks after values point to notes of the source that are not given here.

What was measured:
[1] = ref Fong et al, 2009; cited from earlier work
[2] = system: platinum-sensitive, relapsed, high-grade serous ovarian cancer; settings: olaparib maintenance, ref Ledermann et al, 2012, cited from earlier work
[3] = continuous dosing, ref Mateo et al, 2013; cited from earlier work
[4] = system: patients with advanced solid tumours; assay: Phase I study of olaparib capsules plus PLD; type: in vivo
[5] = all olaparib cohorts + PLD 40 mg m^−2, Total (n=44)
[6] = olaparib 50 mg bid 7 day + PLD 40 mg m^−2 (n=3)
[7] = olaparib 100 mg bid 7 day + PLD 40 mg m^−2 (n=3)
[8] = olaparib 100 mg bid 28 day + PLD 40 mg m^−2 (n=4)
[9] = olaparib 200 mg bid 7 day + PLD 40 mg m^−2 (n=3)
[10] = olaparib 200 mg bid 28 day + PLD 40 mg m^−2 (n=7)
[11] = olaparib 400 mg bid 7 day + PLD 40 mg m^−2 (n=12)
[12] = olaparib 400 mg bid 28 day + PLD 40 mg m^−2 (n=12)
[13] = olaparib + PLD, all cohorts (n=2)
[14] = olaparib + PLD, all cohorts, n=44

## O=C(c1cc(Cc2n[nH]c(=O)c3ccccc23)ccc1F)N1CCN(C(=O)C2CC2)CC1 [olaparib]
[1]
  MTD of olaparib monotherapy (capsule formulation): 400 mg twice daily (bid)
[2]; 95% CI, 0.25–0.49, P<0.00001
  PFS hazard ratio vs placebo: 0.35
[2]
  median PFS: 8.4 months
[3]
  recommended dose of the olaparib tablet formulation: 300 mg bid
[4]; [5]
  Anorexia, patients with grade ⩾3 AE: 2 (5) n (%)
  Anorexia, patients with treatment-related AE: 12 (27) n (%)
  Asthenia, patients with grade ⩾3 AE: 1 (2) n (%)
  Asthenia, patients with treatment-related AE: 21 (48) n (%)
  Decreased neutrophil count, patients with grade ⩾3 AE: 9 (20) n (%)
  Decreased neutrophil count, patients with treatment-related AE: 13 (30) n (%)
  Nausea, patients with grade ⩾3 AE: 5 (11) n (%)
  Nausea, patients with treatment-related AE: 28 (64) n (%)
  PPES, patients with grade ⩾3 AE: 1 (2) n (%)
  PPES, patients with treatment-related AE: 11 (25) n (%)
  Stomatitis, patients with grade ⩾3 AE: 7 (16) n (%)
  Stomatitis, patients with treatment-related AE: 32 (73) n (%)
  Vomiting, patients with grade ⩾3 AE: 1 (2) n (%)
  Vomiting, patients with treatment-related AE: 13 (30) n (%)
[4]; [6]
  Asthenia, patients with treatment-related AE: 2 n
  Decreased neutrophil count, patients with grade ⩾3 AE: 2 n
  Decreased neutrophil count, patients with treatment-related AE: 2 n
  Nausea, patients with treatment-related AE: 3 n
  Stomatitis, patients with treatment-related AE: 3 ^b n
[4]; [7]
  Asthenia, patients with treatment-related AE: 1 n
  Decreased neutrophil count, patients with grade ⩾3 AE: 3 n
  Decreased neutrophil count, patients with treatment-related AE: 3 n
  Nausea, patients with grade ⩾3 AE: 1 n
  Nausea, patients with treatment-related AE: 2 n
  Stomatitis, patients with grade ⩾3 AE: 2 ^c n
  Stomatitis, patients with treatment-related AE: 3 n
  Vomiting, patients with treatment-related AE: 1 n
[4]; [8]
  Anorexia, patients with grade ⩾3 AE: 1 n
  Anorexia, patients with treatment-related AE: 1 n
  Asthenia, patients with treatment-related AE: 2 n
  Decreased neutrophil count, patients with grade ⩾3 AE: 1 n
  Decreased neutrophil count, patients with treatment-related AE: 2 n
  Nausea, patients with treatment-related AE: 2 n
  Stomatitis, patients with treatment-related AE: 2 n
[4]; [9]
  Asthenia, patients with treatment-related AE: 2 n
  Decreased neutrophil count, patients with treatment-related AE: 1 n
  Nausea, patients with treatment-related AE: 2 n
  PPES, patients with treatment-related AE: 1 n
  Stomatitis, patients with treatment-related AE: 2 n
[4]; [10]
  Anorexia, patients with grade ⩾3 AE: 1 n
  Anorexia, patients with treatment-related AE: 3 n
  Asthenia, patients with treatment-related AE: 2 n
  Decreased neutrophil count, patients with grade ⩾3 AE: 1 n
  Decreased neutrophil count, patients with treatment-related AE: 1 n
  Nausea, patients with treatment-related AE: 3 n
  PPES, patients with treatment-related AE: 2 n
  Stomatitis, patients with grade ⩾3 AE: 1 n
  Stomatitis, patients with treatment-related AE: 5 n
  Vomiting, patients with treatment-related AE: 3 n
[4]; [11]
  Anorexia, patients with treatment-related AE: 4 n
  Asthenia, patients with grade ⩾3 AE: 1 n
  Asthenia, patients with treatment-related AE: 6 n
  Decreased neutrophil count, patients with grade ⩾3 AE: 1 n
  Decreased neutrophil count, patients with treatment-related AE: 2 n
  Nausea, patients with grade ⩾3 AE: 4 n
  Nausea, patients with treatment-related AE: 8 n
  PPES, patients with treatment-related AE: 4 n
  Stomatitis, patients with grade ⩾3 AE: 2 n
  Stomatitis, patients with treatment-related AE: 6 n
  Vomiting, patients with grade ⩾3 AE: 1 n
  Vomiting, patients with treatment-related AE: 6 n
[4]; [12]
  Anorexia, patients with treatment-related AE: 4 n
  Asthenia, patients with treatment-related AE: 6 n
  Decreased neutrophil count, patients with grade ⩾3 AE: 1 n
  Decreased neutrophil count, patients with treatment-related AE: 2 n
  Nausea, patients with treatment-related AE: 8 n
  PPES, patients with grade ⩾3 AE: 1 n
  PPES, patients with treatment-related AE: 4 n
  Stomatitis, patients with grade ⩾3 AE: 2 n
  Stomatitis, patients with treatment-related AE: 11 n
  Vomiting, patients with treatment-related AE: 3 n
[4]; olaparib + PLD, all cohorts
  patients with alterations in neutrophil count: 30%
[4]; [13]
  Grade ⩾3 haematologic alterations: haemoglobin: 5%
  Grade ⩾3 haematologic alterations: white blood cells: 5%
[4]; olaparib + PLD, all cohorts (n=3)
  Grade ⩾3 haematologic alterations: platelets: 7%
[4]; [14]
  alterations in neutrophil count reported as AEs: 13 n
  overall incidence of CTCAE grade ⩾3 events: 61%
  patients discontinued/withdrawn because of treatment-related AEs: seven
  patients who died during the study: Five
  patients with treatment-related serious AEs: five
[4]; olaparib + PLD, all cohorts, n=44 (12 patients)
  patients with serious AEs: 27%
[4]; olaparib + PLD, 100 mg 28-day, 200 mg 28-day and 400 mg 7-day cohorts
  patients with serious AEs of pneumonitis: three
[4]; up to continuous olaparib 400 mg bid + PLD 40 mg m^−2
  MTD of olaparib with PLD: not reached; also recorded: could not be determined
